What was measured:
[1] = test system: Nucleic Acid; experiment: Duplex stability of RNA counter strand assessed as melting temperature; assay type: nucleic-acid assay
[2] = Antisense effect in human 607B cells assessed as down-regulation of bcl2 expression at 100 nM after 48 hrs by Western blot analysis relative to control; assay type: functional
[3] = test system: Nucleic Acid; experiment: Duplex stability of DNA counter strand assessed as melting temperature; assay type: nucleic-acid assay

SMILES	Tm [1]	Activity [2]	Tm [3]
Cc1cn([C@H]2C[C@H](OP(O)(=S)OC[C@H]3O[C@@H](n4ccc(N)nc4=O)[C@H](O)[C@@H]3OP(O)(=S)OC[C@H]3O[C@@H](n4cc(C)c(=O)[nH]c4=O)C[C@@H]3O)[C@@H](COP(O)(=S)O[C@H]3[C@@H](O)[C@H](n4ccc(N)nc4=O)O[C@@H]3COP(O)(=S)O[C@H]3[C@@H](O)[C@H](n4ccc(N)nc4=O)O[C@@H]3COP(O)(=S)O[C@H]3[C@@H](O)[C@H](n4ccc(N)nc4=O)O[C@@H]3COP(O)(=S)O[C@H]3[C@@H](O)[C@H](n4cnc5c(N)ncnc54)O[C@@H]3COP(O)(=S)O[C@H]3[C@@H](O)[C@H](n4cnc5c(=O)[nH]c(N)nc54)O[C@@H]3COP(O)(=S)O[C@H]3[C@@H](O)[C@H](n4ccc(N)nc4=O)O[C@@H]3COP(O)(=S)O[C@H]3[C@@H](O)[C@H](n4cnc5c(=O)[nH]c(N)nc54)O[C@@H]3COP(O)(=S)O[C@H]3C[C@H](n4cc(C)c(=O)[nH]c4=O)O[C@@H]3COP(O)(=S)O[C@H]3[C@@H](O)[C@H](n4cnc5c(=O)[nH]c(N)nc54)O[C@@H]3COP(O)(=S)O[C@H]3[C@@H](O)[C@H](n4ccc(N)nc4=O)O[C@@H]3COP(O)(=S)O[C@H]3[C@@H](O)[C@H](n4cnc5c(=O)[nH]c(N)nc54)O[C@@H]3COP(O)(=S)O[C@H]3[C@@H](O)[C@H](n4ccc(N)nc4=O)O[C@@H]3COP(O)(=S)O[C@H]3[C@@H](O)[C@H](n4ccc(N)nc4=O)O[C@@H]3COP(O)(=S)O[C@H]3[C@@H](O)[C@H](n4cnc5c(N)ncnc54)O[C@@H]3COP(O)(=S)O[C@H]3[C@@H](NCCCCN)[C@H](n4ccc(=O)[nH]c4=O)O[C@@H]3CO)O2)c(=O)[nH]c1=O (stereo not given in full)	50.1 °C	70.6%	67.6 °C
Cc1cn([C@H]2C[C@H](OP(=O)(O)OC[C@H]3O[C@@H](n4cnc5c(N)ncnc54)[C@H](O)[C@@H]3OP(=O)(O)OC[C@H]3O[C@@H](n4ccc(N)nc4=O)[C@H](O)[C@@H]3OP(=O)(O)OC[C@H]3O[C@@H](n4ccc(N)nc4=O)[C@H](O)[C@@H]3OP(=O)(O)OC[C@H]3O[C@@H](n4cnc5c(=O)[nH]c(N)nc54)[C@H](O)[C@@H]3OP(=O)(O)OC[C@H]3O[C@@H](n4ccc(N)nc4=O)[C@H](O)[C@@H]3OP(=O)(O)OC[C@H]3O[C@@H](n4cnc5c(=O)[nH]c(N)nc54)[C@H](O)[C@@H]3OP(=O)(O)OC[C@H]3O[C@@H](n4cc(C)c(=O)[nH]c4=O)C[C@@H]3OP(=O)(O)OC[C@H]3O[C@@H](n4cnc5c(=O)[nH]c(N)nc54)[C@H](O)[C@@H]3OP(=O)(O)OC[C@H]3O[C@@H](n4ccc(N)nc4=O)[C@H](O)[C@@H]3OP(=O)(O)OC[C@H]3O[C@@H](n4cnc5c(=O)[nH]c(N)nc54)[C@H](O)[C@@H]3OP(=O)(O)OC[C@H]3O[C@@H](n4cnc5c(N)ncnc54)[C@H](O)[C@@H]3OP(=O)(O)OC[C@H]3O[C@@H](n4ccc(N)nc4=O)[C@H](O)[C@@H]3OP(=O)(O)OC[C@H]3O[C@@H](n4ccc(N)nc4=O)[C@H](O)[C@@H]3OP(=O)(O)OC[C@H]3O[C@@H](n4ccc(N)nc4=O)[C@H](O)[C@@H]3OP(=O)(O)OC[C@H]3O[C@@H](n4cc(C)c(=O)[nH]c4=O)C[C@@H]3OP(=O)(O)OC[C@H]3O[C@@H](n4ccc(N)nc4=O)[C@H](O)[C@@H]3OP(=O)(O)OC[C@H]3O[C@@H](n4cc(C)c(=O)[nH]c4=O)C[C@@H]3O)[C@@H](CO)O2)c(=O)[nH]c1=O	65.3 °C		79 °C
